{"source": "ChEMBL document CHEMBL1201862", "about": "“PubChem BioAssay data set” (2004)", "key": {"Troponin, cardiac muscle": {"target": "Troponin, cardiac muscle (Homo sapiens, UniProt P19429+P45379+P63316)", "assay": "Fluorescence-based biochemical high throughput dose response assay for activators of the calcium sensitivity of cardiac Regulated Thin Filaments (RTF). [Related pubchem assays (depositor defined):AID493008, AID493018, AID504382, AID504383]", "format": "protein-complex assay"}, "Paired box protein Pax-8": {"target": "Paired box protein Pax-8 (Homo sapiens, UniProt Q06710)", "sequence (Q06710 whole entry)": "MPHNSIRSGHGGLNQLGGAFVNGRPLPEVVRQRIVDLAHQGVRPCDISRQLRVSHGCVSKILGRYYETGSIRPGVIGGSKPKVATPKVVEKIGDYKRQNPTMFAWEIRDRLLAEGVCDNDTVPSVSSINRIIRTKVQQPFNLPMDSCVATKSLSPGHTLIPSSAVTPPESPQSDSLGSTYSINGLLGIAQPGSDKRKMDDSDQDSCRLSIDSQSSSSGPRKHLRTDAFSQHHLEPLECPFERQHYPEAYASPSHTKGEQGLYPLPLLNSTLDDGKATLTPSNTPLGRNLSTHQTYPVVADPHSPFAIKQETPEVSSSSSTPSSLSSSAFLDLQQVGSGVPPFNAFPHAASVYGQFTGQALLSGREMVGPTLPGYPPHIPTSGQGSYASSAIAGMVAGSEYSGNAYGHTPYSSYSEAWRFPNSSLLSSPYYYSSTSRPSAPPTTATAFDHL", "assay": "inhibitors of PAX8-driven TPO luciferase reporter, dose response, RMG-I cells, cherry-pick (AID 687027);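 also: luciferase reporter driven by Pax8 target thyroperoxidase promoter measured by SteadyGlo luminescence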", "format": "functional, cell-based"}, "[1]": {"assay": "inhibitors of firefly luciferase expression or activity, dose response, H4 neuroglioma cells, luminescence (AID 1990)", "format": "functional, cell-based"}, "HeLa": {"system": "HeLa", "assay": "HeLa cell cytotoxicity, dose response, cytotoxicity control, 24 h, cherry-picked samples (AID 504726)", "format": "functional, cell-based", "settings": "Homo sapiens"}, "Protein S100-A4": {"target": "Protein S100-A4 (Homo sapiens, UniProt P26447)", "sequence (P26447 whole entry)": "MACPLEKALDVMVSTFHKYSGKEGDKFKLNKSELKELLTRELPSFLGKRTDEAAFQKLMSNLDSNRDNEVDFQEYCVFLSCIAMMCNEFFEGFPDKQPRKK", "assay": "S100A4-myosin IIA binding inhibitor potency, dose response, biochemical, fluorescence polarization, cherry-picked hits (AID 687001)", "format": "functional"}, "[2]": {"assay": "Luminescence Cell-Based Dose Response HTS to Identify Inhibitors of 5'UTR Stem-Loop Driven Prion Protein mRNA Translation in H4 Neuroglioblastoma Cells. [Related pubchem assays: 1827 (Project Summary), 1813 (Primary HTS)]", "format": "functional"}, "ORF 73": {"target": "ORF 73 (Human herpesvirus 8, UniProt O40947)", "sequence (O40947 whole entry)": "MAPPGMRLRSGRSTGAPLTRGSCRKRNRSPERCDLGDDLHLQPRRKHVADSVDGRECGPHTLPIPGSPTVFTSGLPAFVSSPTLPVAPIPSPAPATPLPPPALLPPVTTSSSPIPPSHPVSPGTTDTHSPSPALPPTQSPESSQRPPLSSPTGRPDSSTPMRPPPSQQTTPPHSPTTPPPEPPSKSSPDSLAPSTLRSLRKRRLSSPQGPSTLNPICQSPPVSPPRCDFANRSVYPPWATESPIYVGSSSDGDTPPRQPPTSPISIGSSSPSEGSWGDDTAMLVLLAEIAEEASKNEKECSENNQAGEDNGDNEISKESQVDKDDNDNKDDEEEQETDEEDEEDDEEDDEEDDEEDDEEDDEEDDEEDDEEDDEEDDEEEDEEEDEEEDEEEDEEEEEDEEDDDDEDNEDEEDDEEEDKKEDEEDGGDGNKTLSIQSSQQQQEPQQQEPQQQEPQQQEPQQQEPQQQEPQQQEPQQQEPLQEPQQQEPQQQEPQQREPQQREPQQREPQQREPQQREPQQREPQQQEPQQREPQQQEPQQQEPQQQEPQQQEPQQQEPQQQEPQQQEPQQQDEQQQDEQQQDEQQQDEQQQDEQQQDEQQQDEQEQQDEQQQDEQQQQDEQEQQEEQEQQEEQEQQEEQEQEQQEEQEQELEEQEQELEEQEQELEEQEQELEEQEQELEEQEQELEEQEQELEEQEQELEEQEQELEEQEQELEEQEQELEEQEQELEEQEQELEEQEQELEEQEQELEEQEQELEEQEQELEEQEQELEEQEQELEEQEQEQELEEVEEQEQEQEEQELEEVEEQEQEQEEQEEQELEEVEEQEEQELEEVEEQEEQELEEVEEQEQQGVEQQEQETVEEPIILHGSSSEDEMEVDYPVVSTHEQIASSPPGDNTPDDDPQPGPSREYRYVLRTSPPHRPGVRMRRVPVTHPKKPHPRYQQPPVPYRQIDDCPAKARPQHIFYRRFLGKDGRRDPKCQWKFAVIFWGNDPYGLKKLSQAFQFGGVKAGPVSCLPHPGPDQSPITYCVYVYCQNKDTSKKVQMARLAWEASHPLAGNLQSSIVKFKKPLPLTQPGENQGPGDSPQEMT", "assay": "inhibitors of C-LANA binding to LBS DNA, dose response, biochemical, fluorescence polarization, cherry-picked samples (AID 504725);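 also: fluorescence polarization of a labeled DNA duplex reporting LANA DNA binding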", "set-up": "species or system Human gammaherpesvirus 8"}, "[3]": {"assay": "inhibitors of SNCA 5'UTR-driven reporter translation, confirmation, H4 neuroglioma cells, luminescence (AID 1988)", "format": "functional, cell-based"}, "[4]": {"target": "T1, Polyadenylate-binding protein 1 (Homo sapiens, UniProt P11940)", "T1 sequence (P11940 whole entry)": "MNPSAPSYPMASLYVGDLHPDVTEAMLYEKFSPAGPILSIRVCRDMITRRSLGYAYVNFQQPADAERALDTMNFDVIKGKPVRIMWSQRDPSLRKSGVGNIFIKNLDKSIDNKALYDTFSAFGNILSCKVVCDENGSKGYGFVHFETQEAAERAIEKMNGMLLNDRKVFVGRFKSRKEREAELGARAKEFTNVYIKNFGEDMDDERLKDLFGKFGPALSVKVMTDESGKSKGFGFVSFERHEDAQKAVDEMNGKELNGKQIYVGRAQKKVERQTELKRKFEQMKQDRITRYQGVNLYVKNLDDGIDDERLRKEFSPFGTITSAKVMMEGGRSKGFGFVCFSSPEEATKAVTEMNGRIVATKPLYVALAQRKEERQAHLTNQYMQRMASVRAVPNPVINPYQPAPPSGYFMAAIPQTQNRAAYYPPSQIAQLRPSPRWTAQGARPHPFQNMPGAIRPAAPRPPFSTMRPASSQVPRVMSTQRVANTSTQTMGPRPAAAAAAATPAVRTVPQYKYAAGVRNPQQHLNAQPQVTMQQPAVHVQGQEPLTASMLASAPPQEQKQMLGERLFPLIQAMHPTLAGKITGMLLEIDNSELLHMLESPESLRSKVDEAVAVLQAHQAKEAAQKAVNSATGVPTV", "assay": "PABP inhibition in translation initiation, SAR follow-up (AID 435018)", "format": "functional"}, "[5]": {"target": "Eukaryotic translation initiation factor 4H (Homo sapiens, UniProt Q15056)", "assay": "eIF4H inhibition in translation initiation, SAR follow-up (AID 435011)", "format": "functional"}, "[6]": {"target": "NACHT, LRR and PYD domains-containing protein 1 (Homo sapiens, UniProt Q9C000)", "sequence (Q9C000 1-1212 limits assumed)": "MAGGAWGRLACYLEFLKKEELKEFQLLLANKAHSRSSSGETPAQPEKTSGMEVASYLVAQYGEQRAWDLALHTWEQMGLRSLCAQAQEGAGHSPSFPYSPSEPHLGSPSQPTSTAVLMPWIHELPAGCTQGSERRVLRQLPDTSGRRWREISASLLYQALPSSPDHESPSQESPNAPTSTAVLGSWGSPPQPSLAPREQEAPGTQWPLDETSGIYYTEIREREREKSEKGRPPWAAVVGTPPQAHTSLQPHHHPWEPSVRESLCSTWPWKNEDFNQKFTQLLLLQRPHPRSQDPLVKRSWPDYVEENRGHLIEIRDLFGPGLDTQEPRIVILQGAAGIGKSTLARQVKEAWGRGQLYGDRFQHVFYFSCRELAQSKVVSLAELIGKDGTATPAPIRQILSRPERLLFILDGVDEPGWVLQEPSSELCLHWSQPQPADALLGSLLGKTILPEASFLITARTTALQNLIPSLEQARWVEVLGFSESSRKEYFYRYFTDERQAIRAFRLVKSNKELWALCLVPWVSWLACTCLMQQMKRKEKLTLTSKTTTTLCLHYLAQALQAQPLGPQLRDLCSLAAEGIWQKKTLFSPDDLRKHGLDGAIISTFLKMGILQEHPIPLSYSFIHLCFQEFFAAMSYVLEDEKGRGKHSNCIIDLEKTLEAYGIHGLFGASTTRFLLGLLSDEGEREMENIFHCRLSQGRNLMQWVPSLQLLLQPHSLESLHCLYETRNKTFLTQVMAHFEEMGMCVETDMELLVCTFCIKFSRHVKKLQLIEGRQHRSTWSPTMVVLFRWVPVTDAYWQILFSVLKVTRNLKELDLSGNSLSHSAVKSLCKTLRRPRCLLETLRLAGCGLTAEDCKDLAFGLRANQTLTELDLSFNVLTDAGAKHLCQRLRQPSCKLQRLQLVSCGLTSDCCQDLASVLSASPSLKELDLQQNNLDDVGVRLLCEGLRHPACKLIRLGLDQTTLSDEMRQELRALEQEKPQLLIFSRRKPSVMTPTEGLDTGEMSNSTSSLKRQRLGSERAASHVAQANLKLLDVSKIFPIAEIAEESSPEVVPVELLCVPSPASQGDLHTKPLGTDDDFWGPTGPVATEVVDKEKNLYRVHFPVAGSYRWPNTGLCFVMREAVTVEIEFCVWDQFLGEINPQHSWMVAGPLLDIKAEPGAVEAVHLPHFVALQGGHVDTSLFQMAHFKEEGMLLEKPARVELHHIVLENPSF", "sequence (Q9C000 1213-1473 limits assumed)": "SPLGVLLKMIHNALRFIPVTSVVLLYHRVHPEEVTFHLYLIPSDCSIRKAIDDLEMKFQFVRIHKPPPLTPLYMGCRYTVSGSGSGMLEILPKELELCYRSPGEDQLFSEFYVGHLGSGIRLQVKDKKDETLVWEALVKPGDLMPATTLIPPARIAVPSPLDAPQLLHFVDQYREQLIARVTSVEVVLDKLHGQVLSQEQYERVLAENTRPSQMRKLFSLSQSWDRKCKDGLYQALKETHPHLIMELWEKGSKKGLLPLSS", "assay": "NALP1 inhibitors in yeast, dose response, luminescent (AID 488860)", "format": "functional"}, "Saccharomyces cerevisiae": {"system": "Saccharomyces cerevisiae", "assay": "NALP1 inhibitor project selectivity study, Caspase-1/ASC signal blockade IC50 in S. cerevisiae (AID 488863)", "format": "functional, organism-based"}, "[7]": {"target": "T2, E3 ubiquitin-protein ligase XIAP (Homo sapiens, UniProt P98170)", "T2 sequence (P98170 whole entry)": "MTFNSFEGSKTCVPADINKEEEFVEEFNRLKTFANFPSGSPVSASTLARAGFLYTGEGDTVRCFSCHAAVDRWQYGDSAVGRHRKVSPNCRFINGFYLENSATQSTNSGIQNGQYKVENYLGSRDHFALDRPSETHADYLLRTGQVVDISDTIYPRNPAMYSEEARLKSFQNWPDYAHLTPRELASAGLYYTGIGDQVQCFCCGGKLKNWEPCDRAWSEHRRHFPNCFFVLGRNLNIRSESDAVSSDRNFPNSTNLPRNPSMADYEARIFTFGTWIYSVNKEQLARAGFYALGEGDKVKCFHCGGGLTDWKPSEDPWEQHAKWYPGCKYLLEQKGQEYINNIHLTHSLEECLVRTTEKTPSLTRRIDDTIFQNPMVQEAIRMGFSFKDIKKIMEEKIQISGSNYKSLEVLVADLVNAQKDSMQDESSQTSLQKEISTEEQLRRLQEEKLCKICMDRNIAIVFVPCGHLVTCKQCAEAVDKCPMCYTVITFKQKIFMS", "assay": "Counter Screen using XIAP-Bir3 for Chemical Antagonists of Bir1/2 domains of IAP-family anti-apoptotic proteins. [Related pubchem assays (depositor defined):AID1018, AID1449, AID1514, AID1638, AID1749, AID1750, AID488957, AID488963]"}, "[8]": {"target": "T2, E3 ubiquitin-protein ligase XIAP", "assay": "XIAP antagonists, biochemical, IAP family, fluorescence polarization (AID 1018)", "format": "functional"}, "[9]": {"target": "Female germline-specific tumor suppressor gld-1 (Caenorhabditis elegans, UniProt Q17339)", "sequence (Q17339 whole entry)": "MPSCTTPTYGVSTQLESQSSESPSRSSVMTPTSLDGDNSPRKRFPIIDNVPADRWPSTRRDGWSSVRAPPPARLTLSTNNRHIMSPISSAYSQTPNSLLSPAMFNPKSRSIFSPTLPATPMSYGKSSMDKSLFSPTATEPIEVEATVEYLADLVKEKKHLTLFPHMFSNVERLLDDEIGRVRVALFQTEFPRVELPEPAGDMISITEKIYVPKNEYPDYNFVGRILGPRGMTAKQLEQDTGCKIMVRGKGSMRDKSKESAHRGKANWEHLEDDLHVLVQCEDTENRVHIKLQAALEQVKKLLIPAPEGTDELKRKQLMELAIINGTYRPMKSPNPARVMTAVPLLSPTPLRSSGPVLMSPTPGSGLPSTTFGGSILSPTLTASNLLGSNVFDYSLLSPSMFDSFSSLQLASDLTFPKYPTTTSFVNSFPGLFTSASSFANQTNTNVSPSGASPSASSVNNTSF", "assay": "inhibitors of GLD-1 binding to TGE RNA, dose response, biochemical, fluorescence polarization, C. elegans (AID 2802);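 also: fluorescence polarization of labeled TGE RNA bound by purified gld-1 protein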"}, "Protein Rev": {"target": "Protein Rev (Human immunodeficiency virus type 1 group M subtype B (isolate HXB2)(HIV-1), UniProt P04618)", "assay": "inhibitors of Rev binding to RRE RNA, dose response, biochemical, fluorescence polarization, HIV-1 (AID 434976)", "set-up": "species or system Human immunodeficiency virus 1"}, "[10]": {"target": "T3, Sentrin-specific protease 1 (Homo sapiens, UniProt Q9P0U3)", "T3 sequence (Q9P0U3 whole entry)": "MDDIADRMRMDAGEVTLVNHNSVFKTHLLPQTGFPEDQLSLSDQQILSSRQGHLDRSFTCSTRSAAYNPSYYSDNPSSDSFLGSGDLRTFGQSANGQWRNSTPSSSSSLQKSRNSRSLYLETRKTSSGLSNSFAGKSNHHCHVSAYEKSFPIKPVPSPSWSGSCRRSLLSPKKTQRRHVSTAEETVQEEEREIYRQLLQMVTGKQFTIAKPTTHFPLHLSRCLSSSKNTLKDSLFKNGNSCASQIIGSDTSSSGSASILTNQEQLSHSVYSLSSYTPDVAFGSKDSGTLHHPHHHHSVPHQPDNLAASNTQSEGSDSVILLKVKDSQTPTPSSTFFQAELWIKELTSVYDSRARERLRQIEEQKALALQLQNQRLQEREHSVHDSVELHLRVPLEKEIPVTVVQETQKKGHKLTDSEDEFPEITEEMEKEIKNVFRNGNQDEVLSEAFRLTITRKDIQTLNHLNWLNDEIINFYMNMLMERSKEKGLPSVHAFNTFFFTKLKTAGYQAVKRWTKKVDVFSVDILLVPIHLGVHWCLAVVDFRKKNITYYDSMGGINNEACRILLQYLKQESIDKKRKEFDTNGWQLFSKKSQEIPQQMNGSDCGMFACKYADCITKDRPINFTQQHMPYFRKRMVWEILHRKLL", "assay": "Dose response confirmation of small molecule inhibitors of the catalytic domain of the SUMO protease, SENP1 in a FRET assay.", "format": "functional", "settings": "read-out: IC50_Mean"}, "[11]": {"target": "T1, Polyadenylate-binding protein 1", "assay": "PABP1 MLLE–PAM2 binding inhibitor potency, dose response, biochemical, fluorescence polarization, FITC-PAM2 peptide (AID 602259)", "format": "functional", "settings": "read-out: IC50_Mean"}, "[12]": {"target": "T1, Polyadenylate-binding protein 1", "assay": "PABP1 MLLE–PAM2 interaction inhibitors, dose response, miRNA deadenylation inhibitor project, biochemical, fluorescence polarization, Cy5-PAM2 peptide, secondary (AID 602260)", "format": "functional", "settings": "read-out: IC50_Mean"}, "[13]": {"target": "T3, Sentrin-specific protease 1", "assay": "potency of human SENP1 inhibitors, dose response, biochemical, kinetic FRET (AID 651697)", "format": "functional", "settings": "read-out: IC50_Mean"}}, "note": "Calls of active or inactive are those of the source."}
{"smiles": "O=C(c1ccc(COc2ccccc2Br)o1)N1N=C(C(F)F)CC1(O)C(F)F", "note": "(stereo not given)", "values": [{"measurement": "EC50", "setting": "Troponin, cardiac muscle", "value": "> 71.5 µM (inactive)"}]}
{"smiles": "COc1cccc2c1C(=O)c1c(O)c3c(c(O)c1C2=O)C[C@](O)(C(C)=O)C[C@H]3O[C@@H]1C[C@@H](N)[C@@H](O)[C@@H](C)O1", "values": [{"measurement": "AC50", "setting": "Paired box protein Pax-8", "value": "2.84 µM (active)"}, {"measurement": "EC50", "setting": "[1]", "value": "< 0.1 µM (active)"}, {"measurement": "AC50", "setting": "HeLa", "value": "3.2 µM (active)"}, {"measurement": "AC50", "setting": "Protein S100-A4", "value": "0.29 µM (active)"}, {"measurement": "EC50", "setting": "[2]", "value": "0.102 µM (active)"}, {"measurement": "AC50", "setting": "ORF 73", "value": "3.01 µM (active)"}, {"measurement": "EC50", "setting": "[3]", "value": "< 0.1 µM (active)"}]}
{"smiles": "CCc1nnc(NC(=O)CSc2ccc(-c3ccco3)nn2)s1", "values": [{"measurement": "IC50", "setting": "[4]", "value": "64.4 µM (active)"}, {"measurement": "IC50", "setting": "[5]", "value": "9.04 µM (active)"}]}
{"smiles": "COc1ccccc1N1CCN(CCCCCCOc2ccc(F)cc2)CC1", "values": [{"measurement": "IC50", "setting": "[6]", "value": "9.66 µM (active)"}, {"measurement": "IC50", "setting": "Saccharomyces cerevisiae", "value": "13.2 µM (active)"}]}
{"smiles": "CCOc1ccc2cc(C(=O)c3ccccc3)c(=O)oc2c1", "values": [{"measurement": "IC50", "setting": "[7]", "value": "> 100 µM (inactive)"}, {"measurement": "IC50", "setting": "[8]", "value": "> 100 µM (not active)"}]}
{"smiles": "O=C1C=C(O)c2cccc3cccc1c23", "values": [{"measurement": "IC50", "setting": "[9]", "value": "6.13 µM (active)"}, {"measurement": "IC50", "setting": "Protein Rev", "value": "13.9 µM (not active)"}, {"measurement": "IC50", "setting": "[10]", "value": "8.55 µM (active)"}, {"measurement": "IC50", "setting": "[11]", "value": "34.5 µM (inactive)"}, {"measurement": "IC50", "setting": "[12]", "value": "33.1 µM (inactive)"}, {"measurement": "IC50", "setting": "[13]", "value": "13.1 µM (active)"}]}
